Ends that are not written are not given here.
Tests used:
EAE = EAE in animal models (summary statements); assay type: in vivo; settings: unconjugated peptide
Description: (§1) Groups of female animals (age range 6-10 week old C57BL/6 or SJL/J mice and 12-15 week old Lewis rats) were immunized intra-dermally with 100 μl solution containing 30 μg peptide (MOG35-55) or 50 μg PLP139-151 peptide for mice and 30 μg MBP83-99 for Lewis rats) conjugated to 70 μg oxidized or reduced mannan diluted in bi-carbonate buffer, pH 9.0. As controls, age matched groups of animals were vaccinated with oxidized or reduced mannan alone, saline or 30-50 μg of peptide alone. Three consecutive vaccinations were performed spaced 15 days apart. Fifteen days after the last vaccination EAE was induced.

MOG35-55-EAE [1] = experiment: Prophylactic vaccination before MOG35-55-EAE induction, clinical score and body weight; assay type: in vivo, C57BL/6 mice; settings: for protection from MOG35-55-EAE development (clinical score): three vaccinations 15 days apart, EAE induced 15 days after the last, FIG. 1
splenocytes [2] = experiment: T cell priming and proliferation assay, [3H]-thymidine incorporation, ex vivo MOG35-55 recall; assay type: cell-based, C57BL/6 mice; settings: day 25 post EAE induction, versus mannan alone or PBS; FIGS. 7 and 8
Description: Isolated splenocytes were cultured for 72 h in 96-well plates in RPMI 1640 (Invitrogen Life Technologies, Gaithersburg, Md.) containing 10% heat-inactivated FCS, 50 μM 2-ME, and increasing concentrations of MOG35-55 peptide. Cells were stimulated in triplicate at 2×10^6 cells/ml in round-bottom, 96-well plates (Costar). Cells were pulsed with 1 μCi/5×10^5 cells [^3H]-thymidine in triplicate (Amersham Radiochemicals) for the last 16 h of culture. [^3H]-thymidine incorporation was measured by liquid scintillation counting (Wallac, Turku, Finland). Results are expressed as the stimulation index (ratio between radioactivity counts of cells cultured in presence of peptide and cells cultured with media alone).

MOG35-55-EAE [3] = experiment: Histopathological analysis of spinal cord and brain after MOG35-55-EAE induction; assay type: in vivo, C57BL/6 mice
splenocytes [4] = experiment: Cytokines in splenocyte culture supernatants (cytometric bead array, IL-17 ELISA); assay type: cell-based, C57BL/6 mice; settings: 10 μg/ml MOG35-55, day 25 post EAE induction; FIG. 9
From the text: The mouse Th1/Th2 cytokine cytometric bead array kit (BD Biosciences) was used to measure cytokine levels in culture supernatants according to the manufacturer's instructions. The cytokines measured with this kit were: IL-2, IL-4, IL-5, IFN-γ and TNF-α. In addition a mouse IL-17 ELISA set (R&D Systems, Germany) was used to measure cytokine secretion from splenocyte cell culture supernatants according to manufacturer's instructions. The sensitivity of the assay for different cytokines was as follows: IL-2, IL-4 and IL-5=5.0 pg/ml; IFN-γ=2.5 pg/ml; TNF-α=6.3 pg/ml.

PLP139-151-EAE = experiment: Prophylactic vaccination before PLP139-151-EAE induction, clinical score; assay type: in vivo, SJL/J mice; settings: FIG. 10; for clinical score (peak): 6-grade scale, 0.5 = weight loss
Description: as §1
EAE was induced in SJL/J mice using a standard protocol. 150 μg of PLP139-151 was dissolved in PBS and emulsified in an equal volume of CFA (containing […] of heat killed Mycobacterium Tuberculosis HR37a, Sigma). On Day 0 (day of disease induction), one s.c injection was given by injecting 150 μg PLP139-151/200 μl per mouse in both of the flanks. Each mouse also received 400 ng pertussis toxin (Sigma, P2980) (i.p) dissolved in 200 μl PBS. On day 2, mice were received a booster of pertussis toxin (200 ng pertussis toxin dissolved in 200 μl PBS per mouse) Animals were daily evaluated for clinical signs of disease, starting from day 1 post immunisation, using a 6-grade clinical scale: 0, normal animal; 0.5, weight loss; 1, inability to elevate the tail above the horizontal level, tail weakness; 2, tail paralysis; 3, tail paralysis/hind limb paresis; 4, hind limb paralysis/forelimb weakness; 5, quadriplegia/moribund; 6, death from EAE. Moreover, animals were daily weighted throughout the entire experimental period.

[5] = 24 days after EAE induction, FIG. 5

## H-Glu-Asn-Pro-Val-Val-His-Phe-Phe-Lys-Asn-Ile-Val-Thr-Pro-Arg-Thr-Pro-OH (H-ENPVVHFFKNIVTPRTP-OH) [MBP83-99]
EAE
  induction of EAE by the linear peptide: induce EAE

## H-His-Ser-Leu-Gly-Lys-Trp-Leu-Gly-His-Pro-Asp-Lys-Phe-OH (H-HSLGKWLGHPDKF-OH) [PLP139-151]
EAE
  induction of EAE by the linear peptide: induce EAE

## H-Met-Glu-Val-Gly-Trp-Tyr-Arg-Pro[Ser]-Pro-Phe-Ser-Arg-Val-Val-His-Leu-Tyr-Arg-Asn-Gly-Lys-OH [MOG35-55, reference compound]
EAE
  induction of EAE by the linear peptide: induce EAE
MOG35-55-EAE [1]; after day 20, FIGS. 3 and 4
  disease course after day 20 of disease progression: exacerbated
MOG35-55-EAE [1]; initial stages, FIGS. 3 and 4
  EAE compared to non vaccinated controls at initial stages of disease: significantly lower
MOG35-55-EAE [1]; three prior challenges with unconjugated peptide, FIGS. 3 and 4
  susceptibility to MOG-EAE after vaccination with peptide alone: still susceptible to MOG-EAE
MOG35-55-EAE [1]; versus non-vaccinated controls, FIGS. 3 and 4
  delay of EAE initiation: 3 days
Splenocytes [2]
  proliferation of splenocytes: did not show a reduction

## oxidized mannan-MOG35-55: MOG35-55 peptide with a [(Lys-Gly)5] bridge conjugated to oxidized mannan via Schiff base formation (MEVGWYRSPFSRVVHLYRNGK; also: (Lys-Gly)5 bridge, site not given here, conjugated to oxidized mannan via Schiff base; UniProt Q61885 63-83, looked up, fragment)
MOG35-55-EAE [3]; [5]
  demyelinating lesions in the spinal cord: no demyelinating lesions
  inflammatory infiltration in the spinal cord: little inflammatory infiltration
MOG35-55-EAE [3]; individual mice, FIG. 6
  inflammatory and demyelination index, brain and spinal cord: marked reduction
MOG35-55-EAE [1]; FIG. 2
  wasting symptoms (daily weight measurement): absence of wasting symptoms
MOG35-55-EAE [1]
  protection from MOG35-55-EAE development (clinical score): significant protection
MOG35-55-EAE [1]; listed as MOG35-55 peptide conjugated to oxidized mannan
  protection from MOG35-55-EAE development (clinical score): greatest degree of protection
Splenocytes [4]
  amount of IL-17 secreted by MOG35-55 specific T cells: reduction
  levels of Th1 cytokines (IFN-γ, TNF-α, IL-2): reduction
Splenocytes [2]
  proliferation of splenocytes: Significant reduced proliferation

## oxidized mannan-PLP139-151: PLP139-151 peptide with a [(Lys-Gly)5] bridge conjugated to oxidized mannan via Schiff base formation
PLP139-151-EAE
  clinical score (peak): 0.5
  induction of / protection from PLP139-151-EAE: did not induce EAE
PLP139-151-EAE; listed as PLP139-151-oxidized mannan
  induction of / protection from PLP139-151-EAE: completely protected

## reduced mannan-MOG35-55: MOG35-55 peptide with a [(Lys-Gly)5] bridge conjugated to mannan, reduced with sodium borohydride (MEVGWYRSPFSRVVHLYRNGK; also: (KG)5 bridge, site not given here, conjugated to mannan, reduced with sodium borohydride; UniProt Q61885 63-83, looked up, fragment)
MOG35-55-EAE [3]; [5]
  extent of lymphocyte infiltration and demyelination (overall protective effect): Intermediate protective effects
MOG35-55-EAE [1]
  protection from MOG35-55-EAE development (clinical score): significant protection
MOG35-55-EAE [1]; listed as MOG35-55 peptide conjugated to reduced mannan
  protection from MOG35-55-EAE development (clinical score): significant inhibition from disease manifestation
Splenocytes [4]
  amount of IL-17 secreted by MOG35-55 specific T cells: reduction
  levels of Th1 cytokines (IFN-γ, TNF-α, IL-2): reduction
Splenocytes [2]
  proliferation of splenocytes: Significant reduced proliferation

## reduced mannan-PLP139-151: PLP139-151 peptide with a [(Lys-Gly)5] bridge conjugated to mannan, reduced with sodium borohydride
PLP139-151-EAE
  clinical score (peak): 0.5
  induction of / protection from PLP139-151-EAE: did not induce EAE

From patent publication US9180174B2, “Conjugates comprising mannan and myelin oligodentrocyte glycoprotein (MOG)” (priority 2008, dated 2015)
